From patent US8865734B2 (priority 2010, dated 2014) come the findings set out here.

Test [1] has as its system Mycobacterium tuberculosis H37Rv. In words: Kinetics of inhibition and bactericidal activity (CFU plating). Type of test: cell-based. The note with it: for colony forming unit (CFU) number (bactericidal activity): after incubation with various concentrations; for growth inhibition: reached around the same time as PA-824, 14 day period. The method, then:
Mycobacterium tuberculosis H37Rv was incubated at an initial inoculum of 2×10^6 bacteria/ml in Middlebrook 7H9 media containing an increasing concentration of representative compound 47 or 54. Culture samples were collected over a 14 day period. Serial dilutions of the bacterial suspension were performed and plated on 7H 10 medium. Colonies were counted for the different dilutions after 3 weeks incubation at 37° C. under 5% CO2 and compared to that obtained for the DMSO negative and PA-824 positive controls. PA-824 (Stover et al., 2000) is a TB Alliance small chemical compound currently in phase II clinical trials for the treatment of tuberculosis. PA-824 possibly acts via generation of radicals having non-specific toxic effects.

The test system of test [2] is M. tuberculosis drug sensitive strain (lab strain H37Rv). In words: MIC by the Alamar blue method, drug sensitive strain. The note with it: Mycobacterium tuberculosis. Type of test: cell-based. In general terms: Resazurin is reduced to fluorescent resorufin, in cell work by metabolically active cells.
The test system of test [3] is in vitro grown Mycobacteria (M. tuberculosis). The experiment in a line: QUM: Quantification of in vitro grown Mycobacteria (in vitro growth fluorescence assay). Type of test: cell-based. The note with it: Mycobacterium tuberculosis; MIC, 80% bacterial growth inhibition; in vitro growth; read-out: QUM. In short, it runs like this:
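Mycobacterium tuberculosis grown in vitro was quantified by fluorescence across compound dose responses. MIC is defined as the minimum concentration producing 80% growth inhibition.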

The subject of test [4] is M. tuberculosis inside the host macrophage. In words: QIM: Quantification of Intracellular Mycobacteria (intracellular growth assay, phenotypic cell-based). The settings on record: Mycobacterium tuberculosis; MIC, 80% bacterial growth inhibition; intracellular growth; read-out: QIM. In short, it runs like this:
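Phenotypic high-content assay measuring M. tuberculosis multiplication inside host macrophages, run as dose response. MIC is the minimum compound concentration giving 80% bacterial growth inhibition.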

The subject of test [5] is M. tuberculosis H37Rv. The experiment in a line: In vivo activity in a murine model of acute tuberculosis infection. On the set-up: species or system BalbC mice. The settings on record: 4 weeks of treatment. The method, then:
The effect of compounds 177 and 185 on the bacterial load of TB-infected mice was compared to that of the reference compound Isoniazid (INH). 8-week old female BalbC mice were infected with 6×10^5 M. tuberculosis H37Rv via intranasal instillation. Mice were sacrificed at day 1 to control the number of CFU in the lungs. In the acute model of infection, mice were treated for 4 weeks, starting at day 1. Compounds were freshly dissolved in a 0.5% methylcellulose solution and administered by oral gavage 5 times/week. Bacterial load was assessed in lungs and spleen after homogenizing the organs in 1×PBS. Serial dilutions of organs homogenates were spread on Middlebrook 7H11 plates and CFU were determined after 3 weeks incubation at 37° C. under 5% CO2.

Converted amounts (≈) assume the structure as drawn. Structures can show the parent of a compound that is named as a salt.

In general, MIC80 refers to the lowest concentration that inhibits either 80% of growth or 80% of the strains tested, depending on the study. Regarding `CCc1nc2ccccn2c1C(=O)NCc1ccc(-c2ccccc2)cc1` [Compound 47, N-(Biphenyl-4-ylmethyl)-2-ethylimidazo[1,2-a]pyridine-3-carboxamide], in test [1], the “colony forming unit (CFU) number (bactericidal activity)” value was “decrease”. The compound further had a growth inhibition in test [1] of 100%. This compound displayed an MIC80 in test [2] of 1.25 µM (≈ 0.444 µg/mL). Moreover, the MIC in test [3] and in test [4] was less than 1 µM throughout.
For `CCc1nc2ccccn2c1C(=O)NCc1ccc(Oc2ccccc2)cc1` [Compound 54, 2-Ethyl-N-(4-phenoxybenzyl)imidazo[1,2-a]pyridine-3-carboxamide], in test [1], the “colony forming unit (CFU) number (bactericidal activity)” value was “decrease” and the growth inhibition turned out to be 100%. Also, the MIC80 in test [2] was determined as 0.625 µM (≈ 0.232 µg/mL). In addition, in test [3], the MIC was less than 1 µM. In addition, the MIC in test [4] is less than 1 µM.
In the case of `CCc1nc2cc(Cl)ccn2c1C(=O)NCc1ccc(N2CCN(c3ccc(F)cc3)CC2)cc1` [Compound 177, 7-Chloro-2-ethyl-N-(4-(4-(4-fluorophenyl)piperazin-1-yl)benzyl)imidazo[1,2-a]pyridine-3-carboxamide trihydrochloride], in test [5] (50 mg/kg orally), the “CFU in the spleen” value was “No CFU were detected” and the “reduction of CFU in the lungs compared to untreated mice” value is roughly 2 log CFU.
In the case of `CCc1nc2ccc(Cl)cn2c1C(=O)NCc1ccc(Oc2ccc(OC(F)(F)F)cc2)cc1` [Compound 185, 6-Chloro-2-ethyl-N-(4-(4-(trifluoromethoxy)phenoxy)benzyl)imidazo[1,2-a]pyridine-3-carboxamide], in test [5] (50 mg/kg orally), the “CFU in the spleen” value is given as “No CFU were detected” and the “reduction of CFU in the lungs compared to untreated mice” value is recorded as roughly 2 log CFU. For the same compound, the MIC in test [3] was less than 1 µM. Also, in test [4], the MIC was less than 1 µM.
`NNC(=O)c1ccncc1` [INH, Isoniazid, reference compound]: in test [5] (25 mg/kg), the “CFU in the lungs” value was “No CFU were recovered” and the “CFU in the spleen” value is on record as “No CFU were recovered”. In test [2], this compound gave an MIC80 of 1.25 µM (≈ 0.171 µg/mL).
Compound `COc1c(N2C[C@@H]3CCCN[C@@H]3C2)c(F)cc2c(=O)c(C(=O)O)cn(C3CC3)c12` [MFX, moxifloxacin, reference compound] gave an MIC80 in test [2] of 1.25 µM (≈ 0.502 µg/mL).
